Measured values taken from PMC5678437, “A new antagonist for CCR4 attenuates allergic lung inflammation in a mouse model of asthma” (Scientific Reports, 2017).

Legend:
[1] = test system: OVA-induced asthmatic mice; assay: Airway mucus production (PAS staining) in OVA-induced asthmatic mice; type: in vivo, BALB/c mice; details: compound 8a 0.2, 1, 5 mg; budesonide 5 mg; vs vehicle treated group
Protocol: (§1) Male BALB/c 6 week old mice were purchased from the Experimental Animal Center of Zhejiang University. All mice were raised in a specific pathogen-free animal facility. All animal experiments were carried out according to the guidelines for the care and use of laboratory animals and were approved by the ethics committee of Zhejiang University and Peking University, China.
(§2) Mice were sensitized and challenged with chicken egg OVA (sigma-Aldrich, St Louis, MO, USA) as described in details previously. Briefly, after sensitized by intraperitoneal injection of 100 μl (80 μg) OVA in 100 μl alum (Pierce, Rockford, IL, USA) on days 0 and 14, mice were exposure to 1% OVA aerosols for 40 min on days 24–26. Control mice were injected intraperitoneally with saline and exposed to saline aerosols.
Compound 8a was dissolved in saline with DMSO (0.5%). Half an hour before each OVA challenge, the groups of mice treated with various doses of compound 8a (0.2, 1, 5 mg) inhaled aerosolized compound 8a for 45 min on days 24–26. Compound 8a aerosols were produced by using a Plexiglas chamber and ultrasonic nebulizer. […]
After sacrificed, the lungs were fixed in formalin overnight. […] Inflammation was scored according to published guidelines. And PAS-stained goblet cells in airway epithelium were quantified as described previously.

CCR7 = biological target: T1, CCR7 (Homo sapiens, UniProt P32248); assay: Chemotaxis assay for receptor specificity, HEK293-CCR7; type: cell-based; details: compound as chemoattractant in lower chamber, 0.2, 1, 5, 25 μM
T1 construct: expressed in transfected cells; host or cells: HEK293, pcDB-CCR7 plasmid made in the authors' laboratory
T1 sequence (P32248 25-378): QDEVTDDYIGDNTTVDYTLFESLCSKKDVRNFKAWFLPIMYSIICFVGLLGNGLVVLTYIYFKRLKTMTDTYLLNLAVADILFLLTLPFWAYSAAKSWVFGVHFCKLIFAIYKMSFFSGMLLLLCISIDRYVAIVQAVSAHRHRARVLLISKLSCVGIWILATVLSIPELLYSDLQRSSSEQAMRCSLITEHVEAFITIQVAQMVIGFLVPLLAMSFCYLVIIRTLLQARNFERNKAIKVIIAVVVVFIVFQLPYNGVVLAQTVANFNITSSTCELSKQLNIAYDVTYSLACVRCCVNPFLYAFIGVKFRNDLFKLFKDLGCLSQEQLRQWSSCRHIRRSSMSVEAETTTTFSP
Protocol: (§3) HEK293 cells were transfected with different chemokine receptors. Compound 8a with DMSO was diluted to 0.2 mM, 1 mM, 5 mM and 25 mM, and then we used RPMI 1640 medium containing 0.1% BSA for dilution. The final concentration is: 0.2 μM, 1 μM, 5 μM and 25 μM. DMSO was also diluted 1000-fold with 0.1% BSA RPMI 1640 medium. Chemokines was also diluted to an appropriate concentration. The dilutions of Compound 8a, 1‰ DMSO, the corresponding chemokines of different receptors and 0.1% BSA RPMI 1640 medium were placed in the lower chambers (27.5 μl/well). The transfected HEK293 cells were resuspended in the same medium at a density of 1 × 10^6 cells/ml and added to the upper chambers (55 μl/well).

CXCR4 = biological target: T2, CXCR4 (Homo sapiens, UniProt P61073); assay: Chemotaxis inhibition assay for receptor specificity, HEK293-CXCR4; type: cell-based; details: 0.2, 1, 5, 25 μM, 30 min pretreatment
T2 construct: expressed in transfected cells; host or cells: HEK293; plasmid from Chinese National Human Genome Center
T2 sequence (P61073 1-356 isoform P61073-2): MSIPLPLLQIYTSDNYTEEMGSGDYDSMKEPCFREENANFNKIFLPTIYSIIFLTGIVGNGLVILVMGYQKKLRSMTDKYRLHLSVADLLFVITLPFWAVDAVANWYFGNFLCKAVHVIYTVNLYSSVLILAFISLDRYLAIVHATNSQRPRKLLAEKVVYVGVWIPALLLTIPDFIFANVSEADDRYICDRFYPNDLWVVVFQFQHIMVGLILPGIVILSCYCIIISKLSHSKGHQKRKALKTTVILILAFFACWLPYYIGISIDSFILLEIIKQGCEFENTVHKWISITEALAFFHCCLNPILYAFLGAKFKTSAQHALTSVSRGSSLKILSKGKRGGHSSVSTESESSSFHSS
Protocol: (§4) HEK293 cells were transfected with different chemokine receptors. The corresponding chemokines of different receptors were placed in the lower chambers. The transfected cells were pretreated with different concentrations of Compound 8a or 1‰ DMSO for 30 min at a density of 1 × 10^6 cells/ml and added to the upper chambers, the final concentration of the compound is: 0.2 μM, 1 μM, 5 μM, and 25 μM, respectively.

CCR2B = biological target: T3, CCR2B (Homo sapiens, UniProt P41597); assay: Chemotaxis inhibition assay for receptor specificity, HEK293-CCR2B; type: cell-based; details: 0.2, 1, 5, 25 μM, 30 min pretreatment
T3 construct: expressed in transfected cells; host or cells: HEK293, pcDB-CCR2B plasmid made in the authors' laboratory
T3 sequence (P41597 1-360 isoform P41597-2): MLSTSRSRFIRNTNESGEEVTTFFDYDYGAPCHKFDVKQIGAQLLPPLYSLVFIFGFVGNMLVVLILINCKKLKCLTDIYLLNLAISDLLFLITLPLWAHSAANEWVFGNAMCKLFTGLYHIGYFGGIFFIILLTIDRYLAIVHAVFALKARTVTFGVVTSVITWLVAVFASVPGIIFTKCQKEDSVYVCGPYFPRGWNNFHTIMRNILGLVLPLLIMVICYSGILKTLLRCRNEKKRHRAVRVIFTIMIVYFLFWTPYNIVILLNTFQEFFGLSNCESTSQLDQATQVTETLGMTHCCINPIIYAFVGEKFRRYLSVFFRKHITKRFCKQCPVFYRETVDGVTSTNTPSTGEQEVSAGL
Protocol: as §4

IL-4 = IL-4 in lung homogenate by ELISA in OVA-induced asthmatic mice; type: in vivo, BALB/c mice; details: 5 mg inhaled aerosol; after OVA challenge
Protocol: as §1, §2
Compound 8a was dissolved in saline with DMSO (0.5%). Half an hour before each OVA challenge, the groups of mice treated with various doses of compound 8a (0.2, 1, 5 mg) inhaled aerosolized compound 8a for 45 min on days 24–26. […]
Twenty-four hours after the last challenge, lungs were removed from control or asthmatic mice, and they were cut into pieces and homogenized in 500 μl PBS, centrifuged (2000 rpm, 10 min) and the supernatant collected. The concentration of IL-4 in lungs were determined by ELISA kit (Sensitivity: 2 pg/ml, R&D Systems, Minneap-olis, MN, USA) following the manufacturer’s protocol.

CCR3 = biological target: T4, CCR3 (Homo sapiens, UniProt P51677); assay: Chemotaxis assay for receptor specificity, HEK293-CCR3; type: cell-based; details: compound as chemoattractant in lower chamber, 0.2, 1, 5, 25 μM
T4 sequence (P51677 1-355): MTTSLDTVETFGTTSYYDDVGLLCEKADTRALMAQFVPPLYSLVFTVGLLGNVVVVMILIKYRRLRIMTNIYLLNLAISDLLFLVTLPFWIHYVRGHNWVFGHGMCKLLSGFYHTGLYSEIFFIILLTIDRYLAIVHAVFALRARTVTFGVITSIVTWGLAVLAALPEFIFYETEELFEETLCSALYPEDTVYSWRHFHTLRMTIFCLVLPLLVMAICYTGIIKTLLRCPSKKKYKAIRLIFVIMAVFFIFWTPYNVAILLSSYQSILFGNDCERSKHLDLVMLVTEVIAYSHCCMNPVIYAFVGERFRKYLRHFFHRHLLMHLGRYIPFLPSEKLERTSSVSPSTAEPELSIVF
Protocol: as §3

chemotaxis effect of the compound on HEK293-CCR7 (CCR7): didn’t exert chemotaxis effects
inhibition of chemotaxis of HEK293-CXCR4 to its ligand (CXCR4): few influence
inhibition of chemotaxis of HEK293-CCR2B to its ligand (CCR2B): few influence
chemotaxis effect of the compound on HEK293-CCR3 (CCR3): didn’t exert chemotaxis effects
Compound: O=C(C1CCCCN1)N1CCN(c2nc(Cl)cc(NCc3ccc(Cl)cc3Cl)n2)CC1 (stereo not drawn) [compound 8a, {4-[4-Chloro-6-(2,4-dichloro-benzylamino)-pyrimidin-2-yl]-piperazin-1-yl}-piperidin-2-yl-methanone]
airway mucus production (PAS-stained cells) [1]: no difference
expression of IL-4 in lungs (ELISA) (IL-4): notably decreased
